Assay results as given in patent US11306079B2, “3-(5-amino-pyrazin-2-yl)-benzenesulfonamide derivatives and related compounds as PI3K-gamma kinase inhibitors” (Incyte Corporation, priority 2017, dated 2022).
Where a name gives a salt, the structure may show the parent alone.

What was measured:
[1] = target: PI3Kγ (p110γ) Recombinant Human Protein (Homo sapiens (Human), UniProt P48736); assay: PI3K-γ Scintillation Proximity Assay; assay type: biochemical; conditions: 20 μM PIP2, 2 μM ATP, 13 nM PI3Kγ, 120 min, room temperature
Sequence of PI3Kγ (p110γ) Recombinant Human Protein (P48736 whole entry): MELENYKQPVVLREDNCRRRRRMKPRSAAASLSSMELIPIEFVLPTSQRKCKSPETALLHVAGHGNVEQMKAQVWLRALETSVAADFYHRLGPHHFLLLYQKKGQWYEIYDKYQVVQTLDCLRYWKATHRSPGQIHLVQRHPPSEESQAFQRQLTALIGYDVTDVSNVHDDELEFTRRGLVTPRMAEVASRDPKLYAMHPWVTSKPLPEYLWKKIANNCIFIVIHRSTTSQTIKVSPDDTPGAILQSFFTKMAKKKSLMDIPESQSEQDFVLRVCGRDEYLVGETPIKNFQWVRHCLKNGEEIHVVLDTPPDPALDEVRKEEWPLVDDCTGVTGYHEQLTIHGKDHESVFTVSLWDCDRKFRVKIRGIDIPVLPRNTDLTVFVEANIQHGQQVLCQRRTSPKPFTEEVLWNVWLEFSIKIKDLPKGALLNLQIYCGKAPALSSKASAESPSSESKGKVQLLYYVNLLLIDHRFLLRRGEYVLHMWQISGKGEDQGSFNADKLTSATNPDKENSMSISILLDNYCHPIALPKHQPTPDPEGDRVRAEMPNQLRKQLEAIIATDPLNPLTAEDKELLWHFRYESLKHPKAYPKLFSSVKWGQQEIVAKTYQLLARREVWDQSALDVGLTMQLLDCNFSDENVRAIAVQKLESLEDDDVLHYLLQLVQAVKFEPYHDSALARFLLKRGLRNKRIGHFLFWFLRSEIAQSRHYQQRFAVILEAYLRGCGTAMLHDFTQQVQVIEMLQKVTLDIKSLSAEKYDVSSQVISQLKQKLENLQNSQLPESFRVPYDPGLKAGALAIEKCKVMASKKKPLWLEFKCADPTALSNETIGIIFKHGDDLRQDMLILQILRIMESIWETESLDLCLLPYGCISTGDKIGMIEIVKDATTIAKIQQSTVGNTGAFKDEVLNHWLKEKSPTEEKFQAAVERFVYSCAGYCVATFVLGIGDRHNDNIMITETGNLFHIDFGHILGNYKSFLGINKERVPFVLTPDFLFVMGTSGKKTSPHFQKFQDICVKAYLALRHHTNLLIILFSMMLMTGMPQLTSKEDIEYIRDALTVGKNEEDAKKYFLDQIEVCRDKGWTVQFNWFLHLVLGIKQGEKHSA
How it was run: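 Recombinant human p110γ (13 nM) phosphorylated 20 μM PIP2 with 2 μM ATP plus [γ-33P]ATP in 20 mM MOPS pH 6.7, 10 mM MgCl2, 5 mM DTT, 0.03% CHAPS, 2% DMSO, 120 min at room temperature. Radiolabelled product was captured on WGA SPA beads and counted. IC50 came from curves of percent solvent-control activity.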

[2] = tested on: Phosphorylated Ribosomal Protein S6 (RPS6) in THP-1 cells; assay: THP-1 RPS6 ELISA Assay; assay type: cell-based; conditions: Homo sapiens; serum starved THP-1 cells, 2 hours with compound, 10 nM MCP-1 for 15 minutes, Phospho-RPS6 ELISA; read-out: PI3Kγ_THP1_RPS6_ELISA IC50
How it was run: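 Phospho-RPS6 in lysates measured by ELISA at 450 nm, corrected at 540 nm, after MCP-1 challenge (10 nM, 15 min) of THP-1 cells that were starved overnight and exposed to test compound for 2 h at 37° C, 2×10^5 cells/well. Curve fit of percent inhibition gives IC50.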

[3] = target: PI3Kδ (p110δ/p85α) Recombinant Human Protein (Homo sapiens (Human), UniProt O00329); assay: PI3Kδ Scintillation Proximity Assay; assay type: biochemical; conditions: 20 μM PIP2, 2 μM ATP, 3.4 nM PI3Kδ, 120 min, room temperature
Sequence of PI3Kδ (p110δ/p85α) Recombinant Human Protein (O00329 whole entry): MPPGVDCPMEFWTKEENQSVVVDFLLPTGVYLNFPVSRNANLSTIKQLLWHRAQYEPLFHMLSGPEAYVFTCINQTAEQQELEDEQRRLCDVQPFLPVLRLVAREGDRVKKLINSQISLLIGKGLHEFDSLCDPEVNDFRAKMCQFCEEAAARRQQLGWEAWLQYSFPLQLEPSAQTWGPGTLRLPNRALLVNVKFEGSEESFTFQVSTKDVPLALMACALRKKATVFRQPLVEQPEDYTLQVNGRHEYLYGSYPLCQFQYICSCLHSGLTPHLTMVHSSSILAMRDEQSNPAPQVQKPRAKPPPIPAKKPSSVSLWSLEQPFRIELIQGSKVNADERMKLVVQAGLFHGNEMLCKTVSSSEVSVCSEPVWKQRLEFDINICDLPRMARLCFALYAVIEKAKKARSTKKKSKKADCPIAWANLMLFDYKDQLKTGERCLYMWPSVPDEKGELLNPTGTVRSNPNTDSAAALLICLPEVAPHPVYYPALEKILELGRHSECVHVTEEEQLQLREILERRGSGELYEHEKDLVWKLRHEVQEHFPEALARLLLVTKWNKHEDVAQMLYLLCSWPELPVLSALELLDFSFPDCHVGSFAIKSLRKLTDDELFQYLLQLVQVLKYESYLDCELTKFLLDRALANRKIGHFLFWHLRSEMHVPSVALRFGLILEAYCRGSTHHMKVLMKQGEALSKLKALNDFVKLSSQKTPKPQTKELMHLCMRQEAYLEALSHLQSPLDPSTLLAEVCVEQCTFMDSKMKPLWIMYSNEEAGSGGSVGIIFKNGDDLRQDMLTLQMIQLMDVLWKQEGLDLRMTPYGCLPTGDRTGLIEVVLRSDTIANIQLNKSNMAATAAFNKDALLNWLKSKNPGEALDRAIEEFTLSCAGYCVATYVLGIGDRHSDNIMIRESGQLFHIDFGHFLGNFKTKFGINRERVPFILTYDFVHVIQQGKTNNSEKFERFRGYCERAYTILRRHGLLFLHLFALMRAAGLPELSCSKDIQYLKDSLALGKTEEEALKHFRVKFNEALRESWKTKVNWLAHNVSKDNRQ
Sequence of PI3Kδ (p110δ/p85α) Recombinant Human Protein (P27986 whole entry partner): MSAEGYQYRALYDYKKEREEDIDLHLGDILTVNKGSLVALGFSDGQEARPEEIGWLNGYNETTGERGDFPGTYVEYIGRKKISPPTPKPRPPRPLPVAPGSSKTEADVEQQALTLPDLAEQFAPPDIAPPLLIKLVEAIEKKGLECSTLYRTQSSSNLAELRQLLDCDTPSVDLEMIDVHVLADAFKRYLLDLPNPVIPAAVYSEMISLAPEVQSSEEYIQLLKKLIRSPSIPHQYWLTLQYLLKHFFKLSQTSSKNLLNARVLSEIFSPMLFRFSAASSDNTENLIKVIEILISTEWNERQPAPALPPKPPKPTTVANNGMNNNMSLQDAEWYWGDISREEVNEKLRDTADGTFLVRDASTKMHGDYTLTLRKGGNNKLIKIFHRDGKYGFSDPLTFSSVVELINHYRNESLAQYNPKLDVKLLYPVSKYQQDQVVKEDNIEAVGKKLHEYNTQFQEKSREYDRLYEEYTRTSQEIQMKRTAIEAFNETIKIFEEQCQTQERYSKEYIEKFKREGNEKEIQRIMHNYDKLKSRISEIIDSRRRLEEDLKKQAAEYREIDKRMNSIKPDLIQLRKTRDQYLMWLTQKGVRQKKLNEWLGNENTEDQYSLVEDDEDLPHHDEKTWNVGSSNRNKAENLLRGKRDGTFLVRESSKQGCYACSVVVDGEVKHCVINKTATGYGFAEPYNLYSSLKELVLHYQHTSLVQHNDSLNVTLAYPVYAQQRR
How it was run: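 Assay conditions: 2 μM ATP (radiolabelled), 20 μM PIP2, 3.4 nM PI3Kδ, 20 mM MOPS pH 6.7 with 10 mM MgCl2, 5 mM DTT, 0.03% CHAPS, 2 h at room temperature. Signal from bead-captured 33P product; IC50 versus solvent control.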

Structure (SMILES) | IC50 [1] [nM] | IC50 [2] [nM] | IC50 [3] [nM]
Cc1ccc(S(=O)(=O)NC23COC(CO)(C2)C3)cc1-c1cnc(N)c(-c2cn(C)nc2C)n1 [Example 14, 3-(5-Amino-6-(1,3-dimethyl-1H-pyrazol-4-yl)pyrazin-2-yl)-N-(1-(hydroxymethyl)-2-oxabicyclo[2.1.1]hexan-4-yl)-4-methylbenzenesulfonamide trifluoroacetate salt] | ≤ 100 | ≤ 500 | ≤ 500
Cc1ncc(-c2nc(-c3cc(S(=O)(=O)NC45CCC(C#N)(C4)C5)ccc3C)cnc2N)s1 [Example 2, 3-(5-Amino-6-(2-methylthiazol-5-yl)pyrazin-2-yl)-N-(4-cyanobicyclo[2.1.1]hexan-1-yl)-4-methylbenzenesulfonamide trifluoroacetate salt] | ≤ 100 | ≤ 100 | ≤ 100
[2H]C([2H])([2H])c1ccc(S(=O)(=O)NC23CCC(O)(C2)C3)cc1-c1cnc(N)c(-c2cnco2)n1 [Example 74, 3-(5-Amino-6-(oxazol-5-yl)pyrazin-2-yl)-N-(4-hydroxybicyclo[2.1.1]hexan-1-yl)-4-(methyl-d3)benzenesulfonamide trifluoroacetate salt] | ≤ 100 | ≤ 100 | ≤ 500
[2H]C([2H])([2H])c1ccc(S(=O)(=O)NC23CCC(C#N)(C2)C3)cc1-c1cnc(N)c(-c2ncccn2)n1 [Example 70, 3-(5-Amino-6-(pyrimidin-2-yl)pyrazin-2-yl)-N-(4-cyanobicyclo[2.1.1]hexan-1-yl)-4-(methyl-d3)benzenesulfonamide trifluoroacetate salt] | ≤ 100 | ≥ 1000 | < 2000
Cc1ccc(S(=O)(=O)NC23CC(C#N)(C2)C3)cc1-c1cnc(N)c(-c2cn(C)nc2C)n1 [Example 10, 3-(5-Amino-6-(1,3-dimethyl-1H-pyrazol-4-yl)pyrazin-2-yl)-N-(3-cyanobicyclo[1.1.1]pentan-1-yl)-4-methylbenzenesulfonamide Trifluoroacetate Salt] | ≤ 100 | ≤ 500 | ≤ 100
Cc1cc(-c2nc(-c3cc(S(=O)(=O)NC45CCC(CO)(CC4)OC5)ccc3C)cnc2N)ccn1 [Example 18, 3-(5-Amino-6-(2-methylpyridin-4-yl)pyrazin-2-yl)-N-(1-(hydroxymethyl)-2-oxabicyclo[2.2.2]octan-4-yl)-4-methylbenzenesulfonamide Trifluoroacetate Salt] | ≤ 100 | ≤ 500 | ≤ 500
Cc1ccc(S(=O)(=O)NC23COC(CO)(C2)C3)cc1-c1cnc(N)c(-c2cnc(C3CC3)s2)c1 [Example 89, 3-(6-amino-5-(2-cyclopropylthiazol-5-yl)pyridin-3-yl)-N-(1-(hydroxymethyl)-2-oxabicyclo[2.1.1]hexan-4-yl)-4-methylbenzenesulfonamide] | ≤ 100 | ≤ 100 | ≤ 500
Cc1ncc(-c2nc(-c3cc(S(=O)(=O)NC45COC(CO)(C4)C5)cc(F)c3C)cnc2N)s1 [Example 9, 3-(5-Amino-6-(2-methylthiazol-5-yl)pyrazin-2-yl)-5-fluoro-N-(1-(hydroxymethyl)-2-oxabicyclo[2.1.1]hexan-4-yl)-4-methylbenzenesulfonamide trifluoroacetate Salt] | ≤ 100 | ≤ 100 | ≤ 100
Cc1ccc(S(=O)(=O)NC23CNC(C2)C3)cc1-c1cnc(N)c(-c2ncn(C)n2)n1 [Example 57, 3-(5-Amino-6-(1-methyl-1H-1,2,4-triazol-3-yl)pyrazin-2-yl)-N-(2-azabicyclo[2.1.1]hexan-4-yl)-4-methylbenzenesulfonamide trifluoroacetate salt] | ≤ 100 | ≤ 500 | ≤ 100
Cc1ccc(S(=O)(=O)NC23CCC(O)(C2)C3)cc1-c1cnc(N)c(-n2cncn2)n1 [Example 30, 3-(5-Amino-6-(1H-1,2,4-triazol-1-yl)pyrazin-2-yl)-N-(4-hydroxybicyclo[2.1.1]hexan-1-yl)-4-methylbenzenesulfonamide Trifluoroacetate Salt] | ≤ 100 | ≤ 500 | ≤ 500
O=C(O)C(F)(F)F.[2H]C([2H])([2H])c1ccc(S(=O)(=O)NC23CNC(C2)C3)cc1-c1cnc(N)c(-c2cnc(C)s2)n1 [Example 54, 3-(5-Amino-6-(2-methylthiazol-5-yl)pyrazin-2-yl)-N-(2-azabicyclo[2.1.1]hexan-4-yl)-4-(methyl-d3)benzenesulfonamide trifluoroacetate salt] | ≤ 100 | ≤ 500 | ≤ 100
[2H]C([2H])([2H])c1ccc(S(=O)(=O)NC23CC(CO)(C2)C3)cc1-c1cnc(N)c(-c2ccnc(SC)n2)n1 [Example 78, 3-(5-Amino-6-(2-(methylthio)pyrimidin-4-yl)pyrazin-2-yl)-N-(3-(hydroxymethyl)bicyclo[1.1.1]pentan-1-yl)-4-(methyl-d3)benzenesulfonamide] | ≤ 100 | ≤ 100 | ≤ 100
[2H]C([2H])([2H])c1ccc(S(=O)(=O)NC23CC(CO)(C2)C3)cc1-c1cnc(N)c(-n2cncn2)n1 [Example 49, 3-(5-Amino-6-(1H-1,2,4-triazol-1-yl)pyrazin-2-yl)-N-(3-(hydroxymethyl)bicyclo[1.1.1]pentan-1-yl)-4-(methyl-d3)benzenesulfonamide Trifluoroacetate Salt] | ≤ 100 | ≤ 500 | ≤ 100
Cc1ccc(S(=O)(=O)NC23CCC(O)(CC2)C3)cc1-c1cnc(N)c(-n2cncn2)n1 [Example 26, 3-(5-Amino-6-(1H-1,2,4-triazol-1-yl)pyrazin-2-yl)-N-(4-hydroxybicyclo[2.2.1]heptan-1-yl)-4-methylbenzenesulfonamide trifluoroacetate salt] | ≤ 100 | ≤ 100 | ≤ 100
Cc1ccc(S(=O)(=O)NC23CCC(C#N)(C2)C3)cc1-c1cnc(N)c(-n2cncn2)n1 [Example 28, 3-(5-Amino-6-(1H-1,2,4-triazol-1-yl)pyrazin-2-yl)-N-(4-cyanobicyclo[2.1.1]hexan-1-yl)-4-methylbenzenesulfonamide trifluoroacetate salt] | ≤ 100 | ≤ 100 | ≤ 500
[2H]C([2H])([2H])c1ccc(S(=O)(=O)NC23CCC(O)(CC2)C3)cc1-c1cnc(N)c(-n2cncn2)n1 [Example 47, 3-(5-Amino-6-(1H-1,2,4-triazol-1-yl)pyrazin-2-yl)-N-(4-hydroxybicyclo[2.2.1]heptan-1-yl)-4-(methyl-d3)benzenesulfonamide Trifluoroacetate Salt] | ≤ 100 | ≤ 100 | ≤ 100
Cc1ccc(S(=O)(=O)NC23CNC(C2)C3)cc1-c1cnc(N)c(-n2ccnn2)n1 [Example 59, 3-(5-amino-6-(1H-1,2,3-triazol-1-yl)pyrazin-2-yl)-N-(2-azabicyclo[2.1.1]hexan-4-yl)-4-methylbenzenesulfonamide trifluoroacetate salt] | ≤ 100 | ≤ 1000 | ≤ 500
[2H]C([2H])([2H])c1ccc(S(=O)(=O)NC23CCC(C#N)(C2)C3)cc1-c1cnc(N)c(-c2ccn(C)n2)n1 [Example 63, 3-(5-Amino-6-(1-methyl-1H-pyrazol-3-yl)pyrazin-2-yl)-N-(4-cyanobicyclo[2.1.1]hexan-1-yl)-4-(methyl-d3)benzenesulfonamide Trifluoroacetate Salt] | ≤ 100 | ≤ 100 | ≤ 100
Cc1ncc(-c2nc(-c3cc(S(=O)(=O)NC45CCC(CO)(C4)C5)ccc3C)cnc2N)s1 [Example 5, 3-(5-Amino-6-(2-methylthiazol-5-yl)pyrazin-2-yl)-N-(4-(hydroxymethyl)bicyclo[2.1.1]hexan-1-yl)-4-methylbenzenesulfonamide trifluoroacetate salt] | ≤ 100 | ≤ 100 | ≤ 100
Cc1ncc(-c2nc(-c3cc(S(=O)(=O)NC45COC(C(C)O)(C4)C5)ccc3C)cnc2N)s1 (stereo not drawn) [Example 8, 3-(5-Amino-6-(2-methylthiazol-5-yl)pyrazin-2-yl)-N-(1-(1-hydroxyethyl)-2-oxabicyclo[2.1.1]hexan-4-yl)-4-methylbenzenesulfonamide trifluoroacetate salt] | ≤ 100 | ≤ 100 | ≤ 100
Cc1ccc(S(=O)(=O)NC23CC(C#N)(C2)C3)cc1-c1cnc(N)c(-c2ncn(C)n2)n1 [Example 45, 3-(5-Amino-6-(1-methyl-1H-1,2,4-triazol-3-yl)pyrazin-2-yl)-N-(3-cyanobicyclo[1.1.1]pentan-1-yl)-4-methylbenzenesulfonamide Trifluoroacetate Salt] | ≤ 100 | ≤ 500 | ≤ 500
[2H]C([2H])([2H])c1ccc(S(=O)(=O)NC23CC(C#N)(C2)C3)cc1-c1cnc(N)c(-c2ccnc(SC)n2)n1 [Example 76, 3-(5-Amino-6-(2-(methylthio)pyrimidin-4-yl)pyrazin-2-yl)-N-(3-cyanobicyclo[1.1.1]pentan-1-yl)-4-(methyl-d3)benzenesulfonamide] | ≤ 100 | ≤ 100 | ≤ 100
